{
  "source": "patent US7301020B2",
  "about": "“Macrolide analogs and methods for identifying same” (priority 2003, dated 2007)",
  "key": {"Prodan-G-actin": {"target": "Prodan-G-actin (Oryctolagus cuniculus, UniProt P68135)", "assay": "Kinetic analysis of binding to Prodan-G-actin (stopped-flow and slow phase)", "set-up": "F-actin is purified from rabbit skeletal muscle using a standard protocol; Prodan (Acrylodan) fluorophore, chemical label on the thiol of Cys374; from tissue; host or cells: rabbit skeletal muscle; species or system rabbit", "method": "FIG. 3: Kinetic analyses of KabC binding of Prodan labeled G-actin. (A-B). Prodan-actin (0.1 μM) and KabC, loaded into separated syringes, were rapidly mixed within ˜1 msec dead-time. The concentrations of KabC were 0.0 μM (a), 1.0 μM (b), 1.5 μM (c), 2.0 μM (d) and 2.5 μM (data not shown), respectively. The decreases in emission intensity were well fitted with single exponential functions to determine the observed rate, kobs. The observed rates are plotted as a function of the [KabC] in panel (B).\nKinetic analysis of binding reactions. The kinetics of the KabC interaction with Prodan-actin is determined, using an Applied Photophysics SX.18MV Stopped-flow spectrometer, by following the decrease in the emission intensity of Prodan-actin at 25° C. Prodan was excited at 385 nm and emission was collected with a 470 nm (+/−5 nm) band-pass filter. In all cases the decrease in emission intensity was best fit with a single exponential function, which was then used to determine the observed rate, kobs. Kinetic constants of on rate (kon) and off rate (koff) were calculated according to the following equation: kobs=kon[KabC]+koff. The kinetics of the slower binding step observed in the interaction of KabC with Prodan-G-actin interaction is measured by measuring the ratio of fluorescence signals at 465 nm and 530 nm. The decay of this ratio is fit using a single exponential rate."}, "NBT-II cells": {"test_system": "NBT-II cells", "assay": "Effect of macrolides on NBT-II cells (live cell microscopy)", "format": "cell-based, rat", "method": "FIG. 7: Effect of KabC on NBT-II cells. NBT-II cells are imaged after 16 hours of drug treatment. KabC concentrations: (A), Control; (B), 10 nM; (C), 100 nM and (D), 1000 nM.\nCell Culture: Rat bladder NBT-II carcinoma cells and mouse NIH 3T3 fibroblast cells are maintained and treated with external drugs as described in Choidas et al (1998).\nLive cell microscopy: A multi-model microscope workstation was used to image phase contrast and fluorescence images of living cells (Choidas et al, 1998). Cells are maintained at 37° in a Hepes based culture medium in a Bioptechs cell perfusion chamber (Choidas et al, 1998)."}, "F-actin": {"target": "T1, F-actin (Oryctolagus cuniculus, UniProt P68135)", "T1 construct": "F-actin is purified from rabbit skeletal muscle using a standard protocol; Prodan (Acrylodan) fluorophore on Cys374 (in the fluorescence spectra); from tissue; host or cells: rabbit skeletal muscle", "assay": "KabC binding to and severing of Prodan-F-actin (fluorescence spectra, SDS-PAGE of supernatant and pellet)", "format": "biochemical, rabbit", "method": "FIG. 6: Fluorescence emission spectra of 5 μM Prodan-F-actin in the absence (a), and after selected times following the addition of KabC to 5 μM: (b), immediately after the addition of KabC (the emission spectrum is acquired in 30 seconds); (c), 15 min; (d), 39 min; (e), The spectrum of an equivalent concentration of the KabC-Prodan-G-actin complex. Inset: SDS-PAGE Analysis of KabC binding to F-actin. 100 μL of F-actin (10 μM) in […] was treated each with KabC (a: 0; b: 1; c: 4; d: 10 μM) for 30 min and airfuged at 120,000 g for another 30 min. Supernatant (S) and pellet (P) of each sample was run on SDS-PAGE.\nF-actin: F-actin is purified from rabbit skeletal muscle using a standard protocol developed in the PI's laboratory (Marriott et al, 1988). The purity and activity of actin is analyzed using SDS-PAGE, polymerization assays and a motility assay (Heidecker et al, 1995).\nThe fluorescence emission of Prodan-F-actin is also immediately quenched upon adding KabC ([…]). However, a particularly attractive feature of the Prodan-actin probe is that the average energy of the fluorescence emission changes appreciably following the binding of ABPs, macrolides and in the transition of F-actin to G-actin. Careful analysis of the spectrum can yield information on the relative amounts of up to 4 different states in equilibrium (Marriott et al, 1988). This feature is useful to help understand how KabC binds to Prodan-F-actin. The addition of an equimolar amount of KabC to Prodan-F-actin leads to an immediate decrease in the fluorescence quantum yield, which is followed by a far slower red-shift in the average energy of the emission spectrum over time. […] In this experiment, the monomeric actin (supernatant, S) and F-actin (pellet, P) fractions of KabC treated F-actin are separated after a 60-minute incubation by high-speed centrifugation (120,000 g) and quantified by Coumassie staining of the acrylamide gel. […]"}},
  "note": "Several values for one entry are separate records, joined by “and”; a condition that tells them apart may be missing. Identical values can stand only once. Entries after “also recorded” stand apart in the source; their conditions may differ.",
  "data": [
    {"substance": "Kabiramide C [KabC]", "values": [
      {"measurement": "binding steps in reaction with G-actin", "setting": "Prodan-G-actin", "value": "two-step reaction"},
      {"measurement": "koff", "setting": "Prodan-G-actin; Prodan-actin 0.1 μM, Y-intercept of kobs vs [KabC]", "value": 5.6, "unit": "s⁻¹"},
      {"measurement": "kon", "setting": "Prodan-G-actin; Prodan-actin 0.1 μM, slope of kobs vs [KabC]", "value": "5.45e+07", "unit": "M⁻¹ s⁻¹"},
      {"measurement": "rate of second, slower phase of G-actin binding", "setting": "Prodan-G-actin; decrease at 465 nm relative to red edge", "value": "0.008 s⁻¹ and 0.005 s⁻¹"},
      {"measurement": "rate of primary binding event", "setting": "Prodan-G-actin; fluorescence quenching of Prodan-actin", "value": 30, "unit": "s⁻¹"},
      {"measurement": "Kd", "setting": "Prodan-G-actin; koff/kon, read-out: dissociation constant (Kd) from kinetic constants", "value": "~100", "unit": "nM"},
      {"measurement": "concentration at which cytotoxic effects are seen", "setting": "NBT-II cells", "value": "> 10", "unit": "nM"},
      {"measurement": "cytotoxic activity on NBT II epithelia cells", "setting": "NBT-II cells", "value": "concentration dependent cytotoxic activity"},
      {"measurement": "cell phenotype", "setting": "NBT-II cells; 10 nM, >12 hours", "value": "fail to complete cytokinesis and are immotile"},
      {"measurement": "cell phenotype", "setting": "NBT-II cells; 100 nM", "value": "the cells lose control of contractile functions and have enlarged vesicles"},
      {"measurement": "cell phenotype", "setting": "NBT-II cells; 1 μM or higher", "value": "complete breakdown of their actin cytoskeleton and die within a few hours"},
      {"measurement": "time to cell death", "setting": "NBT-II cells; 1000 nM", "value": "8˜12 hours"},
      {"measurement": "cell phenotype", "setting": "NBT-II cells; 10˜100 nM", "value": "an increase in the number of blebs, a breakdown in the adherens junction and a cytokinesis defect; also recorded: cytoskeleton-linked phenotypes"},
      {"measurement": "F-actin severing", "setting": "F-actin", "value": "single and slow severing event"},
      {"measurement": "actin fraction by SDS-PAGE after centrifugation", "setting": "F-actin; F-Actin:KabC 10:1 and 5:2", "value": "a significant fraction of the total actin exists as F-actin"},
      {"measurement": "depolymerization of F-actin", "setting": "F-actin; sub-stoichiometric KabC (1/10th)", "value": "not depolymerized"}
    ]}
  ]
}
